{"source": "paper PMC6275946", "about": "(ACS Omega, 2018)", "key": {"[1]": {"molecular_target": "T1, SHP1 (Src-homology-2-domain containing protein tyrosine phosphatase 1) (Homo sapiens, UniProt P29350)", "T1 sequence (P29350 244-515 limits assumed)": "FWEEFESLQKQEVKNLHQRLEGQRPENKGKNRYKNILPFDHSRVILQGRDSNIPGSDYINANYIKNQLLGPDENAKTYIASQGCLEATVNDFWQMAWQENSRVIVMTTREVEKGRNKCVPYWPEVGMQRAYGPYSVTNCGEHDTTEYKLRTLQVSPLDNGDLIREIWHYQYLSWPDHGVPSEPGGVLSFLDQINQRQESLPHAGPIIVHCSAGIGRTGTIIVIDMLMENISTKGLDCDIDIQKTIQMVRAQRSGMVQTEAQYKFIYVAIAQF", "experiment": "pNPP phosphatase assay, […] compound, […] h preincubation at […] °C", "type": "biochemical"}, "[2]": {"molecular_target": "SHP2 (Src-homology-2-domain-containing PTP 2) (Homo sapiens, UniProt Q06124)", "sequence (Q06124 1-541)": "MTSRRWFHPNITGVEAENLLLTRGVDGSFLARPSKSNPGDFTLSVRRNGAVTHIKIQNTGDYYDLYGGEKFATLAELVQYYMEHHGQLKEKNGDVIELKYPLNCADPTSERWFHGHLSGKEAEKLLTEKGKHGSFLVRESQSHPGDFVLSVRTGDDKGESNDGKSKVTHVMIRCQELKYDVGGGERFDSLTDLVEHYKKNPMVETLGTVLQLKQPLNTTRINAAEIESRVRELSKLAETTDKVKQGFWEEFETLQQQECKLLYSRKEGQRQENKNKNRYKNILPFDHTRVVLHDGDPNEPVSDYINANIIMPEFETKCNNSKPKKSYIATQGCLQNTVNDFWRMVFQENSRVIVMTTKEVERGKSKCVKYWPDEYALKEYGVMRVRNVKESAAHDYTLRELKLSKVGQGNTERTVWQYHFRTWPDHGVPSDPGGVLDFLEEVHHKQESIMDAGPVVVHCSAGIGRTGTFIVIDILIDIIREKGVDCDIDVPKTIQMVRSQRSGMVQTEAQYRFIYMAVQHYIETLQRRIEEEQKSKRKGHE", "experiment": "LC-MS/MS of covalent cysteine labeling", "type": "biochemical"}}, "data": [{"smiles": "C=CC(=O)Nc1ccnc2ccccc12", "note": "[compound 12, N-(Quinolin-4-yl)prop-2-enamide]", "values": [{"measurement": "pNPP phosphatase assay, 50 μM compound, 4 h preincubation at 37 °C", "setting": "[1]", "value": "the only two human PTPs that have cysteine at this position, SHP2 and SHP1, are sensitive to inhibition"}, {"measurement": "IC50", "setting": "[2]", "value": "~35", "unit": "µM"}]}]}
